# Patent US20250375491A1, “MONASCUS PILOSUS STRAIN, COMPOSITION FOR LOSING WEIGHT AND IMPROVING GUT MICROBIOTA COMPOSITION AND USE OF SAID MONASCUS PILOSUS” (SUNWAY BIOTECH CO., LTD., priority 2024, published 2025)
# Marks after values point to notes of the source that are not given here.
# Assays:
# Type in all cases: in vivo, Sprague-Dawley (SD) rats
# [1] = system: obesity rats induced by high-fat feed; test: Liver weight and liver/body weight of high-fat diet rats; conditions: Monascinol 0.31 mg/kg BW daily by tube feeding (human 3 mg/day), 8 weeks
# Procedure: (§1) Forty male rats of 8-week-old Sprague-Dawley (SD) strain were purchased from BioLASCO (Taipei, Taiwan) for the experiment. The growing environment was one with constant indoor temperature (25±1° C.), relative humidity of 60%, and 12 hours of cyclic light (light time from 8:00 to 20:00). The rats were acclimatized for four days before the formal experiment, then reared in 5 groups of 8 rats each for 8 weeks and were fed in an ad libitum feeding manner, and their body weight, food intake and water intake were measured at regular intervals during the experimental period.
# (§2) The experimental rats were divided into groups, and the obesity rats were induced by high-fat feed as follows (Please refer to Table 1). • i. NOR Group: Normal animal group. • ii. HF Group: High-fat control group including obesity rats induced by high-fat feed. • iii. RL Group: Obesity rats induced by high-fat feed and tube-fed daily with red yeast rice powder, equivalent to 0.5 g of red yeast rice containing 1.5 mg of Monascinol per day consumed by an adult […] of 60 kg. • iv. RH Group: Obesity rats induced by high-fat feed and tube-fed red yeast rice powder daily, equivalent to 2 g of red yeast rice containing 6 mg of Monascinol per day consumed by an adult of 60 kg. • v. […]
# [2] = system: obesity rats induced by high-fat feed; test: Liver lipid extraction and determination (TC, TG); conditions: high-fat diet rats; Monascinol 0.31 mg/kg BW daily by tube feeding (human 3 mg/day), 8 weeks
# Procedure: as §1
# (§3) The experimental rats were divided into groups, and the obesity rats were induced by high-fat feed as follows (Please refer to Table 1). • i. NOR Group: Normal animal group. • ii. HF Group: High-fat control group including obesity rats induced by high-fat feed. • iii. […]
# (§4) 0.1 g of liver tissue or fecal powder was weighed and 1 mL of chloroform:methanol (2:1, v/v volume ratio) was added, and homogenized with a tissue homogenizer and centrifuged to obtain the supernatant. […] The TC concentration was analyzed using a commercially available biochemical reagent (Model No. BXC 0261, Fortress), and the TG concentration was analyzed using a commercially available biochemical reagent (Model No. BXC 0271, Fortress), as per the kit instruction manual.
# [3] = system: obesity rats induced by high-fat feed; test: Body weight change of obesity rats induced by high-fat feed; conditions: high-fat diet rats, Monascinol 0.31 mg/kg BW daily by tube feeding (human 3 mg/day), 8 weeks
# Procedure: • (1) Msol Group: This group used Monascinol with an adult daily dosage of 3 mg/day. • (2) RL and RH Groups: These groups used the red yeast rice obtained by fermenting the Monascus pilosus fermented rice of the present invention and the red yeast rice contained 3 mg/g of Monascinol, wherein the adult daily dosage of the red yeast rice for the RL and RH groups were 0.5 g/day and 2 g/day respectively. 2. Experiment on Evaluation of Adjustment of Body Fat Composition
# as §1
# The feeding dosage was calculated according to the method of “Estimating the maximum safe starting dose in initial clinical trials for therapeutics in adult healthy volunteers” published by the U.S. Food and Drug Administration in 2005. Provided that an adult of 60 kg was used as the base, the principle of dosage conversion is 6.2 times of the recommended daily intake of mg/kg bw/day for human as the recommended daily intake of mg/kg bw/day for rat, and the rat group is configured and fed with the dosage as shown in Table 1. The formulae are as follows: Dose intake per kilogram of body weight in rats=Recommended intake in humans÷Body weight 60 kg×6.2, and thus the daily dose intake per kilogram of body weight in rats can be calculated.
# The experimental rats were divided into groups, and the obesity rats were induced by high-fat feed as follows (Please refer to Table 1). • i. NOR Group: Normal animal group. • ii. […]
# The body weight of rats was measured weekly and the changes in body weight of each group were compared at the end of the experiment.
# [4] = system: obesity rats induced by high-fat feed; test: Fecal lipid extraction and determination (TC, TG); conditions: high-fat diet rats; Monascinol 0.31 mg/kg BW daily by tube feeding (human 3 mg/day), 8 weeks
# Procedure: as §1, §3, §4
# [5] = system: gut microbiota of high-fat diet rats; test: Gut microbiota fecal analysis (full-length 16S sequencing)
# Procedure: About 0.3 g of fresh feces was collected into 1.5 mL of eppendorf before fasting for sacrifice, sealed with parafilm, stored at −80° C. for analysis, and sent to BioTools (New Taipei, Taiwan) for analysis.
# Total genomic DNA (QIAamp PowerFecal DNA, Qiagen) was extracted from the samples. The DNA concentration was determined by Qubit 4.0 fluorometer (Thermo Scientific) and adjusted to 1 ng/μL. The full-length 16S gene (V1-V9 region) was amplified by 16S gene-specific primers with barcodes (Forward primer 1): 5′ Phos/GCATC-16-base barcode-Sequence ID Number 11, Reverse primer 1: 5′Phos/GCATC-16-base barcode-Sequence ID Number 12). PCR reactions were performed using KAPA HiFi HotStart ReadyMix (Roche): at 95° C. for 3 min. and 20-27 cycles (Sample Dependency): at 95° C. for 30 sec., at 57° C. for 30 sec., at 72° C. for 60 sec; at 72° C. for 5 min., and finally stored at 4° C. for future use. PCR products were monitored on 1% agarose gels. Samples of approximately 1500 bp bright bands were selected and purified by using AMPure PB Beads for SMRTbell library preparation.
# SMRTbell libraries were prepared based on full-length 16S gene amplifications with barcoded primers used in the Multiplex SMRTbell Library Preparation and Sequencing Program (Pacbio). Sequencing was performed in circular consensus sequencing (CCS) mode on a PacBio Sequel Ile instrument, generating HiFi read with a Phred Scale=30. The DNA to be tested will be sequenced iteratively. By comparing the results of the reverse sequencing, sequencing errors will be corrected, ultimately achieving a high accuracy of >99.9% (QV30).
# Information Analysis (Sequential data processing/denoising and species annotation) The sample data from the downstream data were sorted out according to the Barcode sequence and PCR amplification primer sequences. After the removal of the barcodes and primer sequences, the data were imported into QIIME2 (v2019.7.0; https://qiime2.org/) and all the sequences of the samples were saved into one corresponding object Artifacts. QIIME2 cutadapt was used to remove the amplicon variant primers (forward primer 2: Sequence ID Number 13; reverse primer 2: Sequence ID Number 14), and the sequence with the primers removed will be used as QIIME2 DADA2. Input Reads.
# The denoising analysis began with the filtering of sequences, setting each sequence to be cropped to a specified length (forward reads: 280 bp; reverse reads: 220 bp) and setting the MaxEE (forward reads: 2; reverse reads: 2) parameter as the maximum number of expected error bases allowed for the sequence. This was followed by denoising, the core algorithm of DADA2 utilizing the information of sequence abundance, quality score, and relationships between sequences to correct the […] of sequencing errors and to infer the real sequences. Splicing was performed after denoising each end of the sequence (minimum overlap length 20 bp; overlap region was not allowed to be mismatched). Finally, the spliced sequences are subjected to chimera removal by comparing the sequences with higher abundance in the sample. If a sequence with low abundance is similar to several sequences, it can be recognized as a chimera and removed from the sample. Sequences after denoising analysis were used as representative sequences of Amplicon Sequence Variants (ASVs) and can be obtained from the ASV table for subsequent species annotation. The QIIME2 feature-classifier (v2019.7.0; https://qiime2.org/) was used to select machine learning-based classification methods and to train naïve bayes classifiers for different databases and specific variability regions. The taxonomic annotation of ASVs represented by this classifier yields taxonomic information and the composition of the microbial phyla of each sample at each classification level including kingdom, phylum, class, order, family, genus, and species.
# Welch's t-test was analyzed by STAMP (v2.1.3), and the intergroup species differences were plotted as bar charts. […]
# [6] = system: obesity rats induced by high-fat feed; test: Serum biochemical analysis (TC, TG); conditions: high-fat diet rats, Monascinol 0.31 mg/kg BW daily by tube feeding (human 3 mg/day), 8 weeks
# Procedure: as §1
# as §2, with “iv.” for “iv. RH Group: Obesity rats induced by high-fat feed and tube-fed red yeast rice powder daily, equivalent to 2 g of red yeast rice containing 6 mg of Monascinol per day consumed by an adult of 60 kg. • v.”
# The test was performed using a biochemical autoanalyzer (Model No.: Beckman-700, purchased from Fullerton, California, USA). The items measured were Total Cholesterol (TC), and Triglyceride (TG).
# [7] = system: obesity rats induced by high-fat feed; test: Body fat mass and body fat rate (perirenal and epididymal fatty tissues); conditions: high-fat diet rats, Monascinol 0.31 mg/kg BW daily by tube feeding (human 3 mg/day), 8 weeks
# Procedure: as §1
# as §2, with “iv.” for “iv. RH Group: Obesity rats induced by high-fat feed and tube-fed red yeast rice powder daily, equivalent to 2 g of red yeast rice containing 6 mg of Monascinol per day consumed by an adult of 60 kg. • v.”
# At the time of sacrifice, fatty tissues surrounding the kidneys and the epididymis (perirenal and epididymal fatty tissues) of the experimental animals were removed, and the their weights were measured and recorded. The body fat rate was calculated as follows: […]
# [8] = FIGS. 9A-9D, high-fat diet rats
# [9] = order level, FIG. 7C, high-fat diet rats
# [10] = phylum level, FIG. 7A, high-fat diet rats vs HF group
substance,measurement,setting,value
Monascinol [Msol],Liver Weight/Body Weight,[1],3.28 ± 0.37^b %
same,Liver weight,[1],16.84 2.31^b g
same,Liver TC,[2],5.05 ± 0.54^a mg/g
same,Liver TG,[2],14.40 ± 1.57^a mg/g
same,Weight before Sacrifice,[3]; after fasting,488.5 ± 31.7^a g
same,Weight 8 week,[3],512.1 ± 31.1^a g
same,Weight gain,[3],220.8 ± 38.8^a g
same,Feces TC,[4],46.22 ± 4.72^c mg/g
same,Feces TG,[4],61.27 4.80^cd mg/g
same,F/B ratio (abundance ratio of Firmicutes to Bacteroidetes),"[5]; FIG. 7A, high-fat diet rats vs HF group",decrease
same,effect on B. thetaiotaomicron in the intestines,[5]; [8],most significant
same,intestinal abundance of Dubosiella newyorkensis,[5]; [8],increase
same,bacterial abundance of Bifidobacteriales in the intestine,[5]; [9],increased
same,intestinal abundance of Verrucomicrobiales,[5]; [9],increased
same,abundance of Eubacteriales,"[5]; order level, FIG. 8, HF group 50.14%, high-fat diet rats, Monascinol (MSol, 3 mg/day), 8 weeks",43.21%
same,abundance of Bacteroidetes,[5]; [10],increase
same,abundance of Firmicutes,[5]; [10],decrease
same,abundance of A. muciniphila,"[5]; species level, FIG. 7F, high-fat diet-induced obesity rats",increased
same,TC,[6],65.0 ± 10.4^b mg/dL
same,TG,[6],61.7 ± 10.7^a mg/dL
same,Fat/body weight,[7]; body fat percentage,3.35 ± 0.55^b %
same,Fat weight,[7]; perirenal and epididymal fat,17.95 3.55^b g
